In general, inhibition refers to the relative decrease from the control value, in per cent. As usually defined, the IC50 is the midpoint of a concentration-inhibition curve. Low readings indicate higher potency, high ones lower potency.

The target of assay [1] is T1, Sterol O-acyltransferase 2 (Homo sapiens) (UniProt O75908).
T1 sequence (whole entry): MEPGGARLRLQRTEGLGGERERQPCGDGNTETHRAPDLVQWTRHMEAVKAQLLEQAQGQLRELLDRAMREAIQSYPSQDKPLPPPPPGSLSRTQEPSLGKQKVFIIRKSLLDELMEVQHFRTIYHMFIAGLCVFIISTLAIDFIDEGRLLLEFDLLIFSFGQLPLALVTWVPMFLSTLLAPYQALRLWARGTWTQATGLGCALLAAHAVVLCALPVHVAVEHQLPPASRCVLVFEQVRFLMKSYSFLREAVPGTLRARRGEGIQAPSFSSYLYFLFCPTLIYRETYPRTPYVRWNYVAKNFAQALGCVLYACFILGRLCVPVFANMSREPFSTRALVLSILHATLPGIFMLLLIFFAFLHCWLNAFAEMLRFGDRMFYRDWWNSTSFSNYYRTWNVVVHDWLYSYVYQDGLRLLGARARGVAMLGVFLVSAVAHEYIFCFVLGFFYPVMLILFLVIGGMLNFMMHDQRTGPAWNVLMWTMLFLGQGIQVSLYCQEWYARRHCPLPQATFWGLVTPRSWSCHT
Kind of assay: Inhibition of human ACAT2 expressed in insect Hi5 cells at 50 uM. The conditions noted are these: BTI-TN-5B1-4.

Assay [2] has as its target T2, Sterol O-acyltransferase 2 (Homo sapiens, UniProt O75908).
T2 sequence (O75908 whole entry): T1 sequence (whole entry)
As to the kind of experiment: Inhibition of human ACAT2 expressed in insect Hi5 cells. Also on record: species or system BTI-TN-5B1-4.

For assay [3], the target named is T3, Sterol O-acyltransferase 1 (Homo sapiens) (UniProt P35610).
T3 sequence (whole entry): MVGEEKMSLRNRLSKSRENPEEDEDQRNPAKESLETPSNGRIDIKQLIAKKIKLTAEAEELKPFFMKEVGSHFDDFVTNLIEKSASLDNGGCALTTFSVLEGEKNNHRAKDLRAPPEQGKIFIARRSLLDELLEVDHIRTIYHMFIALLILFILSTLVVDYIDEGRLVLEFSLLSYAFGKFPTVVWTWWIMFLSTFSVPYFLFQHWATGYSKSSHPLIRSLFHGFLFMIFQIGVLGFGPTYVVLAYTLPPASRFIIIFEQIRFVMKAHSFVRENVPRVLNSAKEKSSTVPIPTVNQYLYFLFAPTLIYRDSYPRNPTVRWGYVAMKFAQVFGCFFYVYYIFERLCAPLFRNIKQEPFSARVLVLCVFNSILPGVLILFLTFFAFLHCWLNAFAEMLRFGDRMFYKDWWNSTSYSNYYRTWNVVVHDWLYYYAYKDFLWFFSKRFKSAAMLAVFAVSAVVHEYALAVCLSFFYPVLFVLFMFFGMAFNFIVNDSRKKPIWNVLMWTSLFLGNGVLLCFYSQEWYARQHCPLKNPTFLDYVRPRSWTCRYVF
Kind of assay: Inhibition of human ACAT1 expressed in insect Hi5 cells at 0.5 uM. The settings on record: BTI-TN-5B1-4.

Assay [4] has as its target T1, Sterol O-acyltransferase 2 (Homo sapiens). As to the kind of experiment: Inhibition of human ACAT2 expressed in insect Hi5 cells at 0.5 uM. The settings on record: BTI-TN-5B1-4.

As for `CCCCCCCC(=O)Nc1ccccc1-c1ccccc1`, the inhibition in assay [1] amounted to 39%. In assay [2], this compound had an IC50 of 230 µM.

As for `CCCCCCCC(=O)Nc1cccc(-c2ccccc2)c1`, the inhibition in assay [1] was -4%.

Take `CCCCCCCCCNc1ccc(-c2ccccc2)cc1`: the inhibition in assay [1] turned out to be 18%.

For `CCCCCCCCCNc1ccccc1-c1ccccc1`, the inhibition in assay [1] is -1%.

Turning to `CCCCCCCCC(=O)Nc1ccccc1-c1ccccc1`, in assay [1], the inhibition was found to be 27%. Moreover, the IC50 in assay [2] amounted to 414 µM.

Turning to `CCCCCCCCNc1ccc(-c2ccccc2)cc1`, the inhibition in assay [1] is 6%.

Regarding `CCCCCCCCC(=O)Nc1cccc(-c2ccccc2)c1`, the inhibition in assay [1] was -6%.

Take `CCCCCCCCCNc1cccc(-c2ccccc2)c1`: the inhibition in assay [1] was -8%.

Regarding `CCCCCCCC(=O)Nc1ccc(-c2ccccc2)cc1`, the inhibition in assay [1] came to 11%.

For `CCCCCCCCC(=O)Nc1ccc(-c2ccccc2)cc1`, the inhibition in assay [1] worked out at 20%.

For `CCCCCCCC/C=C\CCC(CCCC(C(=O)Nc1ccccc1)C(C)C)C(C)C` (stereo not given), the values for the inhibition in assay [3] and in assay [4] were 53% and 47%, respectively.

As to `CCCCCCCCNc1ccccc1-c1ccccc1`, the inhibition in assay [1] was -4%.

Values taken from ChEMBL document CHEMBL1141600, “Biphenyl versus phenylpyridazine derivatives: the role of the heterocycle in a series of acyl-CoA:cholesterol acyl transferase inhibitors” (J Med Chem, 2008).
